Patent US20030203963A1, “Antimicrobial agent” (priority 2001, published 2003)

Legend:
Br. thermosphacta = test: Test in milk; type: cell-based, Brochothrix thermosphacta; details: 2000 ppm, TMGB010605
Description: (§1) 8.9 ml samples of UHT milk containing 0.5% glucose and the indicator bromocresol purple (0.01%) were prepared and sterilised by autoclaving. The pH before APP addition was pH 6.65. Appropriate stock solutions of APP batch number APP20010215 (at 138 mg/ml) were prepared and filter sterilised. 1 ml of each was added to the milk to prepare tests containing 0, 1000 and 2000 ppm APP. Tests were then inoculated with 100 μl of diluted overnight broth cultures or spore suspensions to give a final inoculum level of ca. 10^3 cfu/ml. These and uninoculated tests were incubated at 20 and 8° C. and examined daily for visible changes compared to uninoculated control.

B. cereus = test: Test in milk; type: cell-based, Bacillus cereus; details: TMGB010605; for Control for: milk at 20° C.
Description: as §1

[1] = tested on: Cl. sporogenes (strains 1.221; Campden; ABC20; 4.440); test: Sensitivity testing for Clostridium species in cooked meat medium; type: cell-based, Clostridium sporogenes; details: highest level tested 2000 ppm APP20010215, anaerobically at 37° C.
Description: Stock solutions of APP215 (0.5, 1 and 2%) were prepared and filter-sterilised. Cooked meat medium (CMM, Oxoid) was prepared by distributing 1 g of the medium to individual test tubes, which were then filled with 8.9 ml water. After autoclaving 100 μl of the APP stock solutions were added, to give final concentrations of 0, 500, […] and 2000 ppm APP. The tests were inoculated with […] of Clostridium spores, to give an inoculum level of ca. 10 cfu/ml. The tubes were overlaid with 3 ml of 2% agar to maintain anaerobicity. The tests were incubated at 37° C., and examined daily for signs of growth (turbidity, gas production).

B. cereus 204 = test: Test in cooked minced beef slurry; type: cell-based, Bacillus cereus; details: minced beef slurry at 8° C., pH 6.24, TCM010619
Description: 1 kg of minced beef, purchased from the local butcher, was mixed with 1 litre of BHI. 200 g portion of this meat slurry was autoclaved. When the meat had cooled, the pH was recorded (pH 6.24), and each pot was inoculated with 2.0 ml of 10^5 spores or cells and the meat re-mixed thoroughly. Each inoculated 200 g pot was distributed as 3×50 g portions. To each pot 1 ml of SDW, 5% or 10% APP (Batch No. APP20010215) was added, and the meat was again mixed thoroughly. An initial viable count was performed, the meat was incubated at 8° C. and sampled twice weekly. The pH of the cooked minced beef slurry was 6.24.

L. monocytogenes 272 = test: Chicken soup trial at 20° C.; type: cell-based, Listeria monocytogenes; details: chicken soup at 20° C., TCSM010430, APP20010213
Excerpt: A local supermarket brand of cream of chicken soup was used as a model food system. 600 g packs were purchased from the local supermarket. This was a ‘fresh home-made type’ of soup that was stored in the chill cabinet, with a short shelf life. It was chosen because it is a rich, nutritious food system containing a range of food components including meat, dairy and vegetable.
Ingredients were labelled as: chicken stock (water, duck fat, chicken, salt, flavourings, yeast extracts, pork gelatine, glucose syrup, vegetable concentrate, milk protein, sugar, malto-dextrin, vegetable oil, citric acid, lactose, chicken fat), ilk, chicken (9%), cream (8%), onion, potato, vegetable oil, modified maize starch, wheat flour, lemon juice, salt, white pepper. pH 5.912. Protein: 3.3%; carbohydrate: 4.7%; fat: 7.2%; fibre: 0.2%; sodium: 0.1%
For the test the soup was mixed 2:1 in water (to facilitate sampling and mixing) and sterilised by autoclaving at 121° C. for 15 minutes. For each experiment the pH of the soup was recorded; this was between pH 5.79-5.88.
For TCS010430/20 (incubated at 20° C.) samples were prepared in 18.8 g quantities, to which 1 g of a suitable filter-sterilised APP stock solution was added and an appropriately diluted 0.2 ml inoculum. Great care was again taken to ensure homogeneous distribution of the APP and micro-organisms. […]

Ps. fluorescens = test: Test in milk; type: cell-based, Pseudomonas fluorescens; details: for Control for: 2000 ppm, TMGB010605
Description: as §1

Salmonella sp. S19 = test: Bioscreen growth inhibition test; type: cell-based; details: BS010510, 24 h/30, APP20010213
Description: For broth cultures and Bioscreen testing most bacteria were grown in Brain Heart Infusion (BHI, Oxoid, pH 7.4). Lactobacillus sake A10 was grown in de Man, Rogosa, Sharpe medium ([…], Oxoid). Yeasts were grown in Sabouraud Liquid medium (SLM, Oxoid). Most bacteria were cultured at 30° C. Lactic acid bacteria were grown on solid medium in enriched CO2 atmosphere. Clostridium species were grown in Reinforced Clostridial Medium (RCM) at 37° C. anaerobically. Brochothrix thermosphacta fungi and yeasts were grown at 25° C. Fungi were cultured on Malt Extract Agar (MEA, Oxoid).
An automated Microbiology Reader Bioscreen C was used to measure growth curves of the strains in the presence and absence of APP. The Bioscreen C measures the development of turbidity (i.e. growth) kinetically by vertical photometry in 200 wells of a honeycomb microtitre plate, simultaneously. The system consists of a Bioscreen C analyser, which is an incubator and measurement unit, integrated with a PC, software (BioLink v 5.30), printer and a ‘Honeycomb 2’ cuvette multiwell plate. Growth curve data can be analysed within the BioLink software or exported to programs such as Excel.
Broth culture media were dispensed in 270 μl volumes into the wells as directed. […] (depending on the micro-organism under investigation) with readings taken every 20 minutes after the trays were shaken. […]

## O=C1CC(CO)OC=C1O (stereo not drawn) [APP, Ascopyrone P]
Br. thermosphacta; milk at 8° C.
  Control for: 1 days
Br. thermosphacta; milk at 20° C.
  Control of growth: No control observed
B. cereus; 1000 ppm
  Control for: 4 days
B. cereus; 2000 ppm, milk at 8° C.
  Control of growth: No control observed
B. cereus; 2000 ppm
  Control for: 6 days
[1]
  Growth inhibition: No growth inhibition
B. cereus 204; 1000 ppm
  Effect on growth: 1000 ppm extended lag phase.
B. cereus 204; 2000 ppm
  Growth to 10^6 delayed by: 2000 ppm delayed growth to 10^6 by 7 d.
L. monocytogenes 272; 1000 ppm
  Effect on growth: No significant effect by 1000 ppm
L. monocytogenes 272; 2000 ppm
  Effect on growth: No total inhibition but reduction of growth rate only by 2000
Ps. fluorescens; milk at 8° C.
  Control for: > 7 days
Ps. fluorescens; milk at 20° C.
  Control for: 2 to 3 days
Ps. fluorescens; Milk at 8° C. pH 6.65
  Total inhibition (effect on growth of target organism by 2000 ppm APP): Ps. fluorescens
Ps. fluorescens; Milk at 20° C. pH 6.65
  Partial inhibition (effect on growth of target organism by 2000 ppm APP): Ps. fluorescens
Salmonella sp. S19
  APP level causing total inhibition: 4000 ppm
